From US11512079B2, “Heterocycle substituted pyridine derivative antifungal agents” (Amplyx Pharmaceuticals, Inc., priority 2017, dated 2022) come the findings set out here.

The structures appear in SMILES notation. In brackets after ≈: the same amount, converted by molar mass. Some results are limits rather than exact numbers.

Holding throughout (assay type): cell-based
Experiment [1] has as its system Cryptococcus gattii. Description: In vitro antifungal assay (Example IX), microdilution broth, MIC. To be noted: minimum inhibitory concentration (≥50% inhibition), 35° C., 72 h (Cryptococcus), RPMI1640. Here is the method:
Preparation of Fungal Suspension. C. albicans 90028 and C. neoformans H99 strains were streaked from frozen stocks at −80° C. onto Sabouraud Dextrose Agar (SDA) plates. These were allowed to grow for 24 h (C. albicans) and 48 h (C. neoformans) at 35° C. before using them in the assay. 5-6 individual colonies were picked and diluted into sterile water to obtain a fungal suspension. The cell density of the suspension was determined and the culture diluted with RPMI1640 medium to obtain a fungal suspension of 2.5×10^3 cells/mL. The suspension was used in the MIC measurement as described below.
Preparation of Compound Stocks and Intermediate Dilutions: The compounds were weighed and DMSO was added to prepare a 10 mg/mL stock. The solutions were mixed by vortexing and sonication at 37° C. for 5-10 mins. The resulting solutions were sterile filtered using a PTFE filter, and aliquoted (12 μL or as needed) and stored at −20° C. Intermediate compound dilutions were prepared in sterile polypropylene tubes in 100% DMSO. The compound stock solution was first diluted in DMSO to obtain a concentration of […] to 0.19 μg/mL.
MIC/MEC Measurement: 99 μL 1 of the fungal suspension in RPMI1640 prepared as above was added to each well of a 96-well round bottom assay plate. 1 μL of the intermediate compound dilutions (200-0.19 μg/mL) were added to wells of the plate. This led to a 100-fold dilution of the intermediate dilutions resulting in a final compound concentration of 2-0.0019 μg/mL in the plate. 1 μL of DMSO was added to “No drug” control wells. The solutions were mixed by shaking on a plate shaker for 10 mins and plates incubated at 35° C. for 40-48 h (C. albicans, A. fumigatus, R. pusillus) and 72 h (Cryptococcus). […] This was validated by thorough mixing and reading at 600 nm on a microplate reader. The minimum concentration that led to shortening of hyphae as compared to hyphal growth in DMSO control wells was determined as the minimum effective concentration (MEC) for A. fumigatus and R. pusillus (as read for echinocandins). The use of the MIC and MEC endpoints against yeasts and molds, respectively has been described by Pfaller M A, Duncanson F, Messer S A, Moet G J, Jones R N, Castanheira M. Antimicrob Agents Chemother. 2011. 55(11):5155-8. In vitro activity of a novel broad-spectrum antifungal, E1210, tested against Aspergillus spp. determined by CLSI and EUCAST broth microdilution methods. Results are shown in Table 2, and the letters indicate the following ranges in μg/mL: […]

Experiment [2] relates to Rhizomucor pusillus 46342. Description: In vitro antifungal assay (Example IX), microdilution broth, MEC. To be noted: minimum effective concentration (shortening of hyphae), 35° C., 40-48 h, RPMI1640. A digest of the protocol: (§1)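 Spore suspensions of A. fumigatus and R. pusillus adjusted to 1-2×10^4 spores/mL in RPMI1640 and exposed to compound dilutions prepared in DMSO, by broth microdilution. MEC taken as the lowest concentration shortening hyphae versus DMSO control wells, read as for echinocandins.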

Experiment [3] concerns Aspergillus fumigatus MYA3626. The experiment is described as above. To be noted: minimum effective concentration (shortening of hyphae), 35° C., 40-48 h, RPMI1640. The method in brief: as §1
The test system of experiment [4] is Cryptococcus neoformans H99. Description: In vitro antifungal assay (Example IX), microdilution broth, MIC. To be noted: minimum inhibitory concentration (≥50% inhibition), 35° C., 72 h, RPMI1640. The method in brief:
(§2)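 CLSI broth microdilution in RPMI1640 with 2.5×10^3 cells/mL and final compound concentrations of 2-0.0019 μg/mL (1% DMSO). C. albicans 90028 plates were incubated at 35° C. for 40-48 h and C. neoformans H99 for 72 h. MIC was read as minimum inhibitory concentration, verified at 600 nm.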
(In general: Dilution methods test growth across graded concentrations, often in twofold steps.)

Experiment [5] has as its system Candida albicans 90028. The experiment is described as above. To be noted: minimum inhibitory concentration (≥50% inhibition), 35° C., 40-48 h, RPMI1640. A digest of the protocol:
as §2

Broadly, the MIC is the smallest concentration in the dilution series that meets the test's criterion for growth inhibition. High values mean a need for much substance, low ones inhibition by little substance. One may read the minimal effective concentration as the lowest level tested that produced the effect sought.

With `Nc1ncccc1-c1cc(Cc2ccc(OCc3ccn4ccnc4c3)nc2)no1` [compound 206, 3-(3-((6-(imidazo[1,2-a]pyridine-7-ylmethoxy)pyridin-3-yl)methyl)isoxazol-5-yl)pyridin-2-amine], the MIC in experiment [1], in experiment [4] and in experiment [5] was above 1 µg/mL each time. Also, the minimal effective concentration in experiment [2] and in experiment [3] was above 1 µg/mL in each case.

For the compound `Nc1ncccc1-c1cc(Cc2ccc(Nc3cccc(F)c3F)nc2)no1` [compound 72, 5-((5-(2-aminopyridin-3-yl)isoxazol-3-yl)methyl)-N-(2,3-difluorophenyl)pyridin-2-amine], the MIC in experiment [1] lay within 0.1 to 1 µg/mL (≈ 0.264 to 2.64 µM); in experiment [4] it was 0.01 to 0.1 µg/mL (≈ 0.0264 to 0.264 µM); in experiment [5] it was 0.01 to 0.1 µg/mL (≈ 0.0264 to 0.264 µM). Besides, the minimal effective concentration in experiment [2] and in experiment [3] was 0.1 to 1 µg/mL in each case.

As to `Nc1ncccc1-c1cc(Cc2ccc(-c3ccccn3)cc2)no1` [compound 203, 3-(3-(4-(pyridin-2-yl)benzyl)isoxazol-5-yl)pyridin-2-amine], the MIC in experiment [1] was 0.1 to 1 µg/mL (≈ 0.305 to 3.05 µM); in experiment [4], 0.1 to 1 µg/mL (≈ 0.305 to 3.05 µM); in experiment [5], above 1 µg/mL. Besides, the minimal effective concentration in experiment [2] and in experiment [3] was above 1 µg/mL throughout.

Regarding `Nc1ncccc1-c1cc(Cc2ccc(OCc3nccs3)nc2)no1` [compound 42, 3-(3-((6-(thiazol-2-ylmethoxy)pyridin-3-yl)methyl)isoxazol-5-yl)pyridin-2-amine], the MIC in experiment [1], in experiment [4] and in experiment [5] was 0.01 to 0.1 µg/mL (≈ 0.0274 to 0.274 µM) throughout. Besides, the minimal effective concentration was 0.1 to 1 µg/mL in experiment [2] and 0.01 to 0.1 µg/mL in experiment [3].

Consider `Nc1ncccc1-c1cc(Cc2ccc(Oc3cc(F)cc(F)n3)cc2)no1` [compound 239, 3-(3-(4-((4,6-difluoropyridin-2-yl)oxy)benzyl)isoxazol-5-yl)pyridin-2-amine], for which the MIC fell in the range of 0.01 to 0.1 µg/mL (≈ 0.0263 to 0.263 µM) in experiment [1], 0.01 to 0.1 µg/mL (≈ 0.0263 to 0.263 µM) in experiment [4] and 0.1 to 1 µg/mL (≈ 0.263 to 2.63 µM) in experiment [5]. Also, the minimal effective concentration in experiment [2] and in experiment [3] was 0.1 to 1 µg/mL throughout.

For `C#CCCOc1ccc(Cc2cc(-c3cccnc3N)on2)cn1` [compound 225, 3-(3-((6-(but-3-yn-1-yloxy)pyridin-3-yl)methyl)isoxazol-5-yl)pyridin-2-amine], the MIC in experiment [1], in experiment [4] and in experiment [5] was 0.1 to 1 µg/mL (≈ 0.312 to 3.12 µM) throughout. Also, the minimal effective concentration in experiment [2] is 0.1 to 1 µg/mL; in experiment [3] it was 0.01 to 0.1 µg/mL.

With `COc1cc(F)cc(NCc2ccc(Cc3cc(-c4cccnc4N)on3)cc2)c1` [compound 201, 3-(3-(4-(((3-fluoro-5-methoxyphenyl)amino)methyl)benzyl)isoxazol-5-yl)pyridin-2-amine], the results for the MIC in experiment [1], in experiment [4] and in experiment [5] were above 1 µg/mL, 0.1 to 1 µg/mL (≈ 0.247 to 2.47 µM) and 0.1 to 1 µg/mL (≈ 0.247 to 2.47 µM), respectively. In addition, the minimal effective concentration was above 1 µg/mL in experiment [2] and 0.1 to 1 µg/mL in experiment [3].

Regarding `Nc1ncccc1-c1cc(Cc2ccc(Cc3ccoc3)cc2)no1` [compound 120, 3-(3-(4-(furan-3-ylmethyl)benzyl)isoxazol-5-yl)pyridin-2-amine], the MIC in experiment [1], in experiment [4] and in experiment [5] was 0.01 to 0.1 µg/mL (≈ 0.0302 to 0.302 µM) each time. Further, the minimal effective concentration in experiment [2] was 0.1 to 1 µg/mL; in experiment [3], at most 0.01 µg/mL.

Consider `Nc1ncccc1-c1cc(Cc2ccc(Oc3cccc(F)c3)nc2)no1` [compound 130, 3-(3-((6-(3-fluorophenoxy)pyridin-3-yl)methyl)isoxazol-5-yl)pyridin-2-amine], for which the MIC in experiment [1] was 0.01 to 0.1 µg/mL (≈ 0.0276 to 0.276 µM); in experiment [4] it was at most 0.01 µg/mL; in experiment [5], 0.01 to 0.1 µg/mL (≈ 0.0276 to 0.276 µM). For the same compound, the minimal effective concentration in experiment [2] was 0.1 to 1 µg/mL; in experiment [3], 0.01 to 0.1 µg/mL.

For `Nc1ncccc1-c1cc(Cc2ccc(Cn3cc(C(F)(F)F)cn3)cc2)no1` [compound 5, 3-(3-(4-((4-(trifluoromethyl)-1H-pyrazol-1-yl)methyl)benzyl)isoxazol-5-yl)pyridin-2-amine], the MIC in experiment [1], in experiment [4] and in experiment [5] was 0.1 to 1 µg/mL (≈ 0.25 to 2.5 µM) throughout. In addition, the minimal effective concentration in experiment [2] and in experiment [3] was 0.1 to 1 µg/mL throughout.

Regarding `Nc1ncccc1-c1cc(Cc2ccc(-c3ccncc3)cc2)no1` [compound 204, 3-(3-(4-(pyridin-4-yl)benzyl)isoxazol-5-yl)pyridin-2-amine], the MIC in experiment [1], in experiment [4] and in experiment [5] was above 1 µg/mL in each case. Further, the minimal effective concentration in experiment [2] and in experiment [3] was above 1 µg/mL in each case.

`Nc1ncccc1-c1cc(Cc2ccc(Oc3cccc(Cl)n3)cc2)no1` [compound 234, 3-(3-(4-((6-chloropyridin-2-yl)oxy)benzyl)isoxazol-5-yl)pyridin-2-amine]: the MIC in experiment [1] was at most 0.01 µg/mL; in experiment [4], at most 0.01 µg/mL; in experiment [5], 0.01 to 0.1 µg/mL (≈ 0.0264 to 0.264 µM). The minimal effective concentration lay in the range of 0.1 to 1 µg/mL in experiment [2] and 0.01 to 0.1 µg/mL in experiment [3].

With `Nc1ncccc1-c1cc(Cc2ccc(Oc3ccccn3)cc2)no1` [compound 110, 3-(3-(4-(pyridin-2-yloxy)benzyl)isoxazol-5-yl)pyridin-2-amine], the MIC in experiment [1] was at most 0.01 µg/mL; in experiment [4] it was 0.01 to 0.1 µg/mL (≈ 0.029 to 0.29 µM); in experiment [5], 0.01 to 0.1 µg/mL (≈ 0.029 to 0.29 µM). The minimal effective concentration in experiment [2] is 0.1 to 1 µg/mL; in experiment [3] it was 0.01 to 0.1 µg/mL.

As for `Nc1ncccc1-c1cc(Cc2ccc(Oc3nc(F)c(F)cc3F)cc2)no1` [compound 241, 3-(3-(4-((3,5,6-trifluoropyridin-2-yl)oxy)benzyl)isoxazol-5-yl)pyridin-2-amine], the MIC fell in the range of 0.01 to 0.1 µg/mL (≈ 0.0251 to 0.251 µM) in experiment [1], 0.01 to 0.1 µg/mL (≈ 0.0251 to 0.251 µM) in experiment [4] and 0.1 to 1 µg/mL (≈ 0.251 to 2.51 µM) in experiment [5]. The minimal effective concentration in experiment [2] lay within 0.1 to 1 µg/mL; in experiment [3], 0.01 to 0.1 µg/mL.

As for `Nc1ncccc1-c1cc(Cc2ccc(COc3cc(F)ccc3F)cc2)no1` [compound 189, 3-(3-(4-((2,5-difluorophenoxy)methyl)benzyl)isoxazol-5-yl)pyridin-2-amine], the MIC fell in the range of 0.1 to 1 µg/mL (≈ 0.254 to 2.54 µM) in experiment [1], 0.01 to 0.1 µg/mL (≈ 0.0254 to 0.254 µM) in experiment [4] and 0.01 to 0.1 µg/mL (≈ 0.0254 to 0.254 µM) in experiment [5]. For the same compound, the minimal effective concentration was above 1 µg/mL in experiment [2] and 0.01 to 0.1 µg/mL in experiment [3].

Consider `Nc1ncccc1-c1cc(Cc2ccc(Oc3cccc(Cl)c3)nc2)no1` [Example 161, 3-(3-((6-(3-chlorophenoxy)pyridin-3-yl)methyl)isoxazol-5-yl)pyridin-2-amine], for which the MIC in experiment [1], in experiment [4] and in experiment [5] was 0.01 to 0.1 µg/mL (≈ 0.0264 to 0.264 µM) throughout. The minimal effective concentration lay within 0.1 to 1 µg/mL in experiment [2] and 0.01 to 0.1 µg/mL in experiment [3].

For the compound `Nc1ncccc1-c1cc(Cc2ccc(Cc3ccc(F)o3)cc2)no1` [compound 124, 3-(3-(4-((5-fluorofuran-2-yl)methyl)benzyl)isoxazol-5-yl)pyridin-2-amine], the MIC in experiment [1], in experiment [4] and in experiment [5] was 0.01 to 0.1 µg/mL (≈ 0.0286 to 0.286 µM) each time. For the same compound, the minimal effective concentration in experiment [2] and in experiment [3] was 0.01 to 0.1 µg/mL throughout.

`Nc1ncccc1-c1cc(Cc2ccc(OCc3cscn3)nc2)no1` [compound 41, 3-(3-((6-(thiazol-4-ylmethoxy)pyridin-3-yl)methyl)isoxazol-5-yl)pyridin-2-amine]: the MIC in experiment [1], in experiment [4] and in experiment [5] was 0.01 to 0.1 µg/mL (≈ 0.0274 to 0.274 µM) in each case. Besides, the figures for the minimal effective concentration in experiment [2] and in experiment [3] were 0.1 to 1 µg/mL and 0.01 to 0.1 µg/mL, respectively.
